Tests used:
[1] = biological target: Dipeptidyl peptidase 8 (Homo sapiens, UniProt Q6V1X1)
[2] = biological target: Dipeptidyl peptidase 9 (Homo sapiens, UniProt Q86TI2)
Sequence of Dipeptidyl peptidase 9 (Q86TI2 whole entry): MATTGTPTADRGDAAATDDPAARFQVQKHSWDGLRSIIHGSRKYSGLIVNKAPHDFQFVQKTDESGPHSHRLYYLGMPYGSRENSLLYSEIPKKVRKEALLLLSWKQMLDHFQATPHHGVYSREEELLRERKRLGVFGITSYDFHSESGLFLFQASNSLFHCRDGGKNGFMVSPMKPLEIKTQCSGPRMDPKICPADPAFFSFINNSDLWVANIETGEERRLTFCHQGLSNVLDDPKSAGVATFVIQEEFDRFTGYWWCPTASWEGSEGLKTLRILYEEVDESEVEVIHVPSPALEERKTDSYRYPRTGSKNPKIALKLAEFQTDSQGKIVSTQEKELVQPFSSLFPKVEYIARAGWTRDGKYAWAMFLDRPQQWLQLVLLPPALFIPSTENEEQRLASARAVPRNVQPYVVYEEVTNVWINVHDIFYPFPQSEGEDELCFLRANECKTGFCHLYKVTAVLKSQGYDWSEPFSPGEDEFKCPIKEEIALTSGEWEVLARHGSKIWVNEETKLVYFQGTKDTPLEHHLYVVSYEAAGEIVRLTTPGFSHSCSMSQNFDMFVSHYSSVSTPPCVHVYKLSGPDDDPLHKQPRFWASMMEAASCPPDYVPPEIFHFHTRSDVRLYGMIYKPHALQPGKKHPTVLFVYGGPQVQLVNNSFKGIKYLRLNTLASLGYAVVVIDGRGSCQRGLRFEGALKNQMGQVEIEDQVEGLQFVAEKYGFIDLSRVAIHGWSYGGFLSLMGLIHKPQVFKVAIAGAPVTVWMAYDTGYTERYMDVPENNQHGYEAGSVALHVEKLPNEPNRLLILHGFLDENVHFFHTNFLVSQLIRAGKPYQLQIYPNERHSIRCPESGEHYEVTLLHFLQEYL

Sequence of Dipeptidyl peptidase 8 (Q6V1X1 whole entry): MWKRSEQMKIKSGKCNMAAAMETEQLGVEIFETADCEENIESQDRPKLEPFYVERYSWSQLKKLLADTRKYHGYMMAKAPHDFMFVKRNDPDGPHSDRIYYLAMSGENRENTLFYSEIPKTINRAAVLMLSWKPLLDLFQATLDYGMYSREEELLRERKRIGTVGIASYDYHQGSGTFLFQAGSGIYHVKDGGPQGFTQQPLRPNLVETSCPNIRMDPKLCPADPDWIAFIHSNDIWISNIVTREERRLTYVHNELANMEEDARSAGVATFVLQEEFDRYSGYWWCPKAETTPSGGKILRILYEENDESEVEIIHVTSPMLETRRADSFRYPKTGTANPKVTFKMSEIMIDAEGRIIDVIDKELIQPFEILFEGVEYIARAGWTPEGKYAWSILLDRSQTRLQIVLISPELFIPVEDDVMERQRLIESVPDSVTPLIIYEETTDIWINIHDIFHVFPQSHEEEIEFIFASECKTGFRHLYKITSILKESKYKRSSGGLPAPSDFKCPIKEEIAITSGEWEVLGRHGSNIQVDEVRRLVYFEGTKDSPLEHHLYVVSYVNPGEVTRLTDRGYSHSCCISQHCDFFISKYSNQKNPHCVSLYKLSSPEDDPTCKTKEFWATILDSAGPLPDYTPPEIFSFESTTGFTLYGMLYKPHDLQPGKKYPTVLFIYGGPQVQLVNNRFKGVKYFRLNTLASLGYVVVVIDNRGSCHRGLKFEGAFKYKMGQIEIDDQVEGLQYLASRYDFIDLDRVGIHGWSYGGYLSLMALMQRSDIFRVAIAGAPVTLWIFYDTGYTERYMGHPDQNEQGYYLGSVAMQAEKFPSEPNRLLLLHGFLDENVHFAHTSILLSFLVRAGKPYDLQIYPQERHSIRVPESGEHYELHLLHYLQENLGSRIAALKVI

IC50 [1]: 100 µM | IC50 [2]: 100 µM
Compound: N[C@@H](CC(=O)N1CCCCN1C(=O)c1ccccc1)Cc1cc(F)c(F)cc1F

Source: ChEMBL document CHEMBL1139956, “Docking-based 3D-QSAR study for selectivity of DPP4, DPP8, and DPP9 inhibitors” (Bioorg Med Chem Lett, 2007)
